Assay results reported in publication PMC6267684, “Pharmacokinetic evaluation of the PNC disassembler metarrestin in wild-type and Pdx1-Cre;LSL-Kras^G12D/+;Tp53^R172H/+ (KPC) mice, a genetically engineered model of pancreatic cancer” (Cancer Chemotherapy and Pharmacology, 2018).
Where “and” joins values, the source holds several entries; their conditions need not be identical. Equal entries are not always repeated. Where two headings read alike, the source gives them in different places.

Test: Pharmacokinetics in tumor-bearing KPC mice after 25 mg/kg single or multiple dose oral gavage
Format: in vivo
Details: for AUC(0-t): po; for Kp: read-out: AUC0–24h ratio (tissue/plasma)
Excerpt: Animals with three or more tumors per organ, pancreatic cysts or cystic tumors, signs of intestinal, pancreatic or gall bladder duct occlusions, or otherwise moribund/showing signs of dilapidation were excluded. Mice were randomized into treatment groups using their tumor volume and location inside pancreas, animal age, gender, and weight by an unbiased covariate randomization.
For pharmacokinetic studies, metarrestin solutions prepared in 30% PEG-400 and 70% (20% w:v HP-β-CD in water) solution were administered to C57BL/6 mice at 3 mg/kg IV via tail vein injection, or 3 and 10 mg/kg orally via gavage. KPC mice were additionally treated with 25 mg/kg PO via gavage. The dosing volume was 3 mL/kg for IV route and 10 mL/kg for PO route. Dosing solutions were prepared on the day of administration. Blood samples were collected at 10, 20 min, 1, 2, 4, 7 and 24 h after 3 mg/kg IV administration. After oral administration of 3 and 10 mg/kg in C57BL6 mice, blood and liver samples were collected at 10 min, 0.5, 1, 2, 3, 5, 7, 9 and 24 h post dosing (n = 3 per time point). In KPC mice, blood, pancreatic tumor, spleen and liver samples were collected at 1, 2, 3, 6, 9, 12 and 24 h after 25 mg/kg PO administration.
For the assessment of multiple dose (MD) pharmacokinetics, KPC mice were treated with daily PO administration of 25 mg/kg metarrestin for 14 days. Plasma (100–300 µL), pancreatic tumors, spleen and liver samples were collected at 0, 3, 6, 9, 12, 15, 24 and 48 h after last dose from three mice at each time point. Daily dosing was carried for 14 days, with the last dose administered at 9:00 a.m. on Day 14. To assess the steady-state concentration of metarrestin in KPC mice, animals were treated with drug-formulated chow for 14 days. To control for daily cycle changes in feeding behavior, 9:00 a.m. on day 0 was designated as the study start time, and 9:00 a.m. on Day 14 was designated as the 0 h time point for sample collection. Blood, pancreatic tumor, spleen and liver tissue were collected at 0, 3, 6, 9, 12, 15, and 24 h from three mice at each time point while the animals were continuously fed with metarrestin-formulated chow on Day 14. Additional controls included mice with a matched drug-free diet, with blood and tissue samples collected at the initial (t = 0) and two intermediate (t = 9 h, t = 24 h) time points.
Blood samples were collected in K2EDTA tubes and plasma was harvested after centrifugation at 3000 rpm for 10 min. Tissue samples were weighed and flash-frozen for PK and PD mRNA expression analyses, embedded into OCT blocks for PNC determination and processed into FFPE blocks for histopathology assessment. All PK samples were stored at − 80 °C until analysis.
An ultra-performance liquid chromatography–tandem mass spectrometry (UPLC–MS/MS) method was developed to determine metarrestin concentrations in plasma and tissue samples. Mass spectrometric analysis was performed on a Waters Xevo TQ-S triple quadrupole instrument using electrospray ionization in positive mode. The separation was performed on an Acquity BEH C18 column (50 × 2.1 mm, 1.7 µ) using a Waters Acquity UPLC system with 0.6 mL/min flow rate and gradient elution. Mobile phase A was 0.1% formic acid in water, and B was 0.1% formic acid in acetonitrile (ACN). The column temperature was maintained at 60 °C. The calibration standards and quality control (QC) samples were prepared in the control blank mouse plasma and tissue homogenate. Tissues were homogenized with 3 or 6 volumes (v/w) of deionized water on the day of analysis. Proteins were precipitated from 10 µL plasma or 5 µL tissue homogenate with 200 µL ACN containing 100 ng/mL Tolbutamide as internal standard in 96-well plates. The mixture was vortexed for 2 min and centrifuged at 4000 rpm for 30 min at 4 °C. An aliquot of 150 µL supernatant was transferred to a 350-µL 96-well plate. 0.2 µL supernatant was injected for the UPLC–MS/MS analysis. Data were analyzed using MassLynx V4.1. […]

[1] = KPC, mouse, pancreatic tumor, tumor, day 14, multiple PO doses 25 mg/kg/day
[2] = KPC, mouse, pancreatic tumor, tumor, single PO dose 25 mg/kg
[3] = KPC, mouse, liver, day 14, multiple PO doses 25 mg/kg/day
[4] = KPC, mouse, liver, single PO dose 25 mg/kg
[5] = KPC, mouse, plasma, day 14, multiple PO doses 25 mg/kg/day
[6] = KPC, mouse, plasma, single PO dose 25 mg/kg
[7] = KPC, mouse, spleen, day 14, multiple PO doses 25 mg/kg/day
[8] = KPC, mouse, spleen, single PO dose 25 mg/kg

## N=c1c2c(-c3ccccc3)c(-c3ccccc3)n(Cc3ccccc3)c2ncn1[C@H]1CC[C@H](O)CC1 [metarrestin, Trans-4-(7-benzyl-4-imino-5,6-diphenyl-4,7-dihydro-3H-pyrrolo[2,3-d]pyrimidin-3-yl) cyclohexanol]
25 mg/kg PO gavage MD
  intratumor AUC0–24h: 1,150,000 h ng/mL
KPC, mouse, liver, 25 mg/kg, liver, single PO dose 25 mg/kg, read-out: AUC0–24h
  AUC(0-t): 536 µg·h/mL
KPC, mouse, liver, 25 mg/kg/day, liver, day 14, multiple PO doses 25 mg/kg/day, read-out: AUC0–24h
  AUC(0-t): 987 µg·h/mL
KPC, mouse, liver, 25 mg/kg/day, liver, day 14, multiple PO doses 25 mg/kg/day, read-out: AUC0–48h
  AUC(0-t): 1290 µg·h/mL
KPC, mouse, pancreatic tumor / plasma, tumor/plasma, day 14, multiple PO doses 25 mg/kg/day
  Kp: 37
KPC, mouse, pancreatic tumor / plasma, tumor/plasma, single PO dose 25 mg/kg
  Kp: 19
KPC, mouse, pancreatic tumor, 25 mg/kg, tumor, single PO dose 25 mg/kg, read-out: AUC0–24h
  AUC(0-t): 232 µg·h/mL
KPC, mouse, pancreatic tumor, 25 mg/kg/day, tumor, day 14, multiple PO doses 25 mg/kg/day, read-out: AUC0–24h
  AUC(0-t): 1150 µg·h/mL
KPC, mouse, pancreatic tumor, 25 mg/kg/day, tumor, day 14, multiple PO doses 25 mg/kg/day, read-out: AUC0–48h
  AUC(0-t): 1810 µg·h/mL
KPC, mouse, pancreatic tumor, 24 h after single dose 25 mg/kg PO, read-out: intratumor concentration (mean)
  concentration at 24 h: 6200 ng/g and 13 µM
[1]
  AUC(0-inf): 2090 µg·h/mL
  Cmax: 65000 ng/mL
  Tmax: 6 h
  half-life: 1080 min
[2]
  Cmax: 14000 ng/mL
  Tmax: 6 h
KPC, mouse, plasma, 25 mg/kg, plasma, single PO dose 25 mg/kg, read-out: AUC0–24h
  AUC(0-t): 12.1 µg·h/mL
KPC, mouse, plasma, 25 mg/kg/day, plasma, day 14, multiple PO doses 25 mg/kg/day, read-out: AUC0–24h
  AUC(0-t): 31.5 µg·h/mL
KPC, mouse, plasma, 25 mg/kg/day, plasma, day 14, multiple PO doses 25 mg/kg/day, read-out: AUC0–48h
  AUC(0-t): 38.4 µg·h/mL
KPC, mouse, spleen, 25 mg/kg, spleen, single PO dose 25 mg/kg, read-out: AUC0–24h
  AUC(0-t): 396 µg·h/mL
KPC, mouse, spleen, 25 mg/kg/day, spleen, day 14, multiple PO doses 25 mg/kg/day, read-out: AUC0–24h
  AUC(0-t): 959 µg·h/mL
KPC, mouse, spleen, 25 mg/kg/day, spleen, day 14, multiple PO doses 25 mg/kg/day, read-out: AUC0–48h
  AUC(0-t): 1220 µg·h/mL
KPC, mouse, liver/plasma, day 14, multiple PO doses 25 mg/kg/day
  Kp: 31
KPC, mouse, liver/plasma, single PO dose 25 mg/kg
  Kp: 44
[3]
  AUC(0-inf): 1350 µg·h/mL
  Cmax: 59500 ng/mL
  Tmax: 6 h
  half-life: 576 min
[4]
  AUC(0-inf): 653 µg·h/mL
  Cmax: 34200 ng/mL
  Tmax: 6 h
  half-life: 540 min
[5]
  AUC(0-inf): 39.3 µg·h/mL
  Cmax: 2000 ng/mL
  Tmax: 3 h
  half-life: 492 min
[6]
  AUC(0-inf): 14.4 µg·h/mL
  Cmax: 810 ng/mL
  Tmax: 6 h
  half-life: 510 min
KPC, mouse, spleen/plasma, day 14, multiple PO doses 25 mg/kg/day
  Kp: 30
KPC, mouse, spleen/plasma, single PO dose 25 mg/kg
  Kp: 33
[7]
  AUC(0-inf): 1250 µg·h/mL
  Cmax: 62400 ng/mL
  Tmax: 6 h
  half-life: 492 min
[8]
  AUC(0-inf): 495 µg·h/mL
  Cmax: 25000 ng/mL
  Tmax: 6 h
  half-life: 582 min
liver, MD 25 mg/kg/day PO
  AUC0–24h: 987,000 ng h/g
liver, SD 25 mg/kg PO
  AUC0–24h: 536,000 ng h/g
tumor, MD 25 mg/kg/day PO
  AUC0–24h: 1,150,000 ng h/g
tumor, SD 25 mg/kg PO
  AUC0–24h: 232,000 ng h/g
